# Counter-ions that a name gives are not always drawn. Like-named read-outs stand apart in the source and are kept apart here.
# Columns and labels:
# [1] = system: duodenal ulcers; test: Cysteamine-induced duodenal ulcer in the rat; conditions: for Duodenal Ulcer Intensity (Scale: 0-3): control 1.8; for Duodenal Ulcer Incidence (Positive/Total): control 10/12
# [2] = system: rats; test: Stereotyped behavior of rats (rating scale; score, onset and duration); type: in vivo, rat (male Sprague-Dawley); conditions: for Stereotypy (percent of the maximum possible score): 100%=18.0, placebo 4.4±2.5%, N=3 to 6; for Stereotypy Score: rated one hour, maximum 18, N=6, mean ±SEM; for Duration of Effect (stereotypy): complete when scores ≤3; for stereotypy scores: NPA 3 mg/kg i.p., N=6
# Description: (§1) Male Sprague-Dawley (Charles River Labs.) rats (initially 175-200 g) were housed four per cage, with free access to food and water, under controlled lighting (on 7:00 a.m. to 7:00 p.m.), constant temperature 21°-23° C. and controlled humidity (40-50%). Aporphines were administered, as described below, freshly dissolved in 1 mM citric acid mixed with 0.9% (w/v) saline (1:4, vols.); this solvent was also used as a vehicle ("placebo") control. Haloperidol was given in the same medium; 2-diethyl aminoethyl-2,2 diphenylvalerate HCl (SKF-525A) was given in saline.
# Stereotyped behavior was evaluated by a trained observer according to a rating scale method reported previously (Campbell and Baldessarini, 1981a). Briefly, the ratings were as follows: 0, no stereotypy, normal locomotion; 1, discontinuous sniffing, reduced locomotion; 2, continuous sniffing, only periodic exploration; 3, continuous sniffing, mouth movements, infrequent, exploratory activity, Ratings were made each 10 min. by observation for 30 sec, typically for 60 min. (maximum score=18.0/hour).
# (§2) In all experiments except those which evaluated the time-course of drug effects, rats were given an injection of vehicle and then allowed to rest for 15 min. to adapt to nonspecific arousal effects, prior to a second injection of test agent (or placebo) and immediate behavioral testing. Behavioral data were evaluated by Student's t-test and are always expressed as mean ±SEM.
# Data are mean values ±SEM for N=6 rats per group given doses of each aporphine (1mg/kg/, or approximately 3 umole/kg) by orogastric intubation (P.O.), or subcutaneous (S.C.) or intraperitoneal (I.P.) injection. Stereotypy was rated for one hour as described in Methods and duration is defined as complete when scores diminished to ≤3 (out of a maximum possible score of 18).
# Data are mean values ±SEM (N=4 to 8 rats per condition). […] N.D. indicates "not determined." (*) Indicates a significant difference by t-test between control and oxidase inhibitor-pretreated rats (p<0.01).
# Stereotypy was rated for 60 min as described in Methods. Data are means SEM (stereotypy scores, when 18=maximum in 1 hour) for N=6 rats per group; (*) indicates p<0.0001 by t test.
# Data are mean values ±SEM (N=3 to 6 rats per condition) for effects of seven aporphine compounds (R=substituents, keyed to the structure above). Full chemical names for all compounds are provided in Methods. […] Data are provided for a dose of 10 mg/kg (i.p.), although doses of 1 and 5 mg/kg were also tested.
# [3] = system: rats; test: Locomotor (general motor) activity, electronic activity monitor; type: in vivo, rat (male Sprague-Dawley)
# Description: as §1
# Locomotor activity was evaluated by use of a printing electronic activity monitor (EAM, Stoelting Co., Chicago, IL) within a sound-attenuated chamber, typically for 60 min., as described previously (Stewart, Campbell, Sperk and Baldessarini, 1979, Psychopharmacology 60 281-289; Campbell and Baldessarini, 1981a, Psychopharmacology 73:219-222.
# as §2
# Data are mean values ±SEM (N=4 to 8 rats per condition). Animals were pretreated with SKF-525A (40 mg/kg, i.p.) or its vehicle 30 min before MDO-NPA (in the doses noted, from 0 to 3 mg/kg, i.p.). Activity was then monitored electronically for an hour after the low doses of MDO-NPA (data in counts/hour), or rated for stereotypy every 10 min for an hour after higher doses. N.D. indicates "not determined." (*) Indicates a significant difference by t-test between control and oxidase inhibitor-pretreated rats (p<0.01).
# Data are mean values ±SEM (N=3 to 6 rats per condition) for effects of seven aporphine compounds (R=substituents, keyed to the structure above). Full chemical names for all compounds are provided in Methods. Ratings are expressed as percent of the maximum possible score (100%)=18.0) of stereotypy (Placebo-injected controls yielded scores of 4.4±2.5%); and as the percent of control locomotor activity (100%=430±86 counts/hr). Data are provided for a dose of 10 mg/kg (i.p.), although doses of 1 and 5 mg/kg were also tested.
# [4] = in vivo, cited from earlier work
# [5] = system: Adenylate cyclase; test: Adenylate cyclase stimulation (cAMP) in rat striatal homogenates; type: biochemical; conditions: 50 μM; control (no addition) 2.38 ± 0.14; p < 0.01; N=4
# Description: of cAMP in rat striatal homogenates; inhibition of binding of
# [6] = system: gastric acid output; conditions: rats given cysteamine or propionitrile; previous studies; cited from earlier work
# [7] = 10 mg/kg i.p.; 100%=430±86 counts/hr; N=3 to 6
# [8] = 50 μg/100g s.c. once daily seven days
# [9] = 100 μg/100g s.c. once daily seven days
# [10] = SKF-525A 40 mg/kg i.p. alone (MDO-NPA dose 0)
molecule,measurement,setting,value
"CC(C)(C)C1(O)CCN2CC3c4ccccc4CCc4cccc(c43)C2C1 (single isomer, unassigned; (+)) [(+)-butaclamol, reference compound]",effect on the beneficial effect of NPA and MDO-NPA,[1]; combined with NPA or MDO-NPA,reversed the beneficial effect of NPA and MDO-NPA
same,effect on cysteamine-induced duodenal ulcers,[1]; rats given cysteamine,aggravated the experimental duodenal ulcers
"CCCCCC1(C)Oc2ccc3c(c2O1)-c1cccc2c1C(C3)N(CCC)CC2.Cl (single isomer, unassigned; (-)) [Methyl-pentyl-MDO--NPA, (-) 10,11-Heptylidene-2-dioxy-N-n-propylnoraporphine-HCl]",Stereotypy (percent of the maximum possible score),[2]; 10 mg/kg i.p.,11.1 ± 5.7%
same,Locomotion (percent of control locomotor activity),[3]; [7],86.1 ± 22.3%
CCCN1CCc2cccc3c2[C@H]1Cc1c([N+](=O)[O-])cc2c(c1-3)OCO2 [8-Nitro-MDO--NPA],Stereotypy (percent of the maximum possible score),[2]; 10 mg/kg i.p.,4.4 ± 2.5%
same,Locomotion (percent of control locomotor activity),[3]; [7],74.4 ± 9.8%
"CN1CCc2cccc3c2[C@H]1Cc1ccc(O)c(O)c1-3 [APO, apomorphine, reference compound]",duration of action,[4],short duration of action
same,Stereotypy Score,[2]; 1 mg/kg I.P.,16.5 ± 2.4
same,Duration of Effect (stereotypy),[2]; 1 mg/kg I.P.,72 ± 12 min
same,Stereotypy Score,[2]; 1 mg/kg P.O.,0
same,Duration of Effect (stereotypy),[2]; 1 mg/kg P.O.,0 min
same,Stereotypy Score,[2]; 1 mg/kg S.C.,17.5 ± 0.4
same,Duration of Effect (stereotypy),[2]; 1 mg/kg S.C.,70 ± 5 min
same,dependence of duration of action on dose,[2]; i.p.,much less tendency for duration to increase with dose
same,minimal effective dose,"[3]; Rattus norvegicus, ip; read-out: dose producing increases in general motor activity",> 2 µmol/kg
same,motor activity at lower doses (below 2 μmoles/kg),[3]; i.p.,no significant effect
CN1CCc2cccc3c2[C@H]1Cc1ccc2c(c1-3)OCO2 [MDO-APO],Stereotypy,[2]; 10 mg/kg i.p.,weak and inconsistent stereotypy (not significant statistically)
same,behavioral effects after oral administration,[2]; 1 to 5 mg/kg oral,no significant behavioral effects
same,excitatory effects,[3]; 10 mg/kg i.p.,relatively weak and inconsistent excitatory effects
same,inhibition of locomotor activity,[3]; 10 mg/kg i.p.,significant effect (p 0.01 by t-test) to inhibit locomotor activity
"CCCN1CCc2cccc3c2[C@H]1Cc1ccc(O)c(O)c1-3 [NPA, N-n-Propylnorapomorphine, reference compound]",Duodenal Ulcer Intensity (Scale: 0-3),[1]; [8],1.1
same,Duodenal Ulcer Incidence (Positive/Total),[1]; [8],2/9
same,Duodenal Ulcer Intensity (Scale: 0-3),[1]; [9],0.9
same,Duodenal Ulcer Incidence (Positive/Total),[1]; [9],6/9
same,effect of a single high dose on duodenal ulcers,[1]; single high dose,active
same,oral bioavailability,[4]; po,poor oral bioavailability
same,duration of action,[4],short duration of action
same,Adenylate cyclase stimulation (cAMP),[5],5.67 ± 0.28 pmol/assay
same,Stereotypy Score,[2]; 1 mg/kg I.P.,17.5 ± 1.0
same,Duration of Effect (stereotypy),[2]; 1 mg/kg I.P.,70 ± 10 min
same,Stereotypy Score,[2]; 1 mg/kg P.O.,0
same,Duration of Effect (stereotypy),[2]; 1 mg/kg P.O.,0 min
same,Stereotypy Score,[2]; 1 mg/kg S.C.,17.5 ± 0.8
same,Duration of Effect (stereotypy),[2]; 1 mg/kg S.C.,72 ± 6 min
same,stereotypy scores,[2]; controls (vehicle pretreated),17.4±0.2
same,stereotypy scores,[2]; oxidase-inhibited (SKF-525A 40 mg/kg i.p.),17.0±0.3
same,dependence of duration of action on dose,[2]; i.p.,much less tendency for duration to increase with dose
same,duration of stereotyped behavioral effects vs other agents,"[2]; i.p., for MDO-NPA at doses above 1 μmole/kg","about equal to, or slightly greater than that of APO"
same,minimal effective dose,"[3]; Rattus norvegicus, ip, read-out: dose producing increases in general motor activity",> 2 µmol/kg
same,motor activity at lower doses (below 2 μmoles/kg),[3]; i.p.,no significant effect
"CCCC(C(=O)OCCN(CC)CC)(c1ccccc1)c1ccccc1 [SKF-525A, 2-diethyl aminoethyl-2,2 diphenylvalerate HCl, reference compound]",Stereotypy,[2]; [10],0
same,Activity,[3]; [10],422 ± 28 counts/hour
CC(C)C[C@H]1C(=O)N2CCC[C@H]2[C@]2(O)O[C@](NC(=O)[C@@H]3C=C4c5cccc6[nH]c(Br)c(c56)C[C@H]4N(C)C3)(C(C)C)C(=O)N12 [bromocriptine],effect on output of gastric acid,[6],diminished the output of gastric acid
CN1C[C@H](CC#N)C[C@@H]2c3cccc4[nH]c(Cl)c(c34)C[C@H]21 [lergotrile],effect on output of gastric acid,[6],diminished the output of gastric acid
"(-) 10, 11-Butylidene-2-dioxy-N-n-propylnoraporphine. HCl [Methyl-ethyl MDO--NPA]",Stereotypy,[2]; 10 mg/kg i.p.,weak stereotypic activity
same,duration of stereotypic activity,[2]; 10 mg/kg i.p.,about 60 min
same,onset of stereotypic activity delayed,[2]; 10 mg/kg i.p.,about 30 min
same,Stereotypy (percent of the maximum possible score),[2]; 10 mg/kg i.p.,31.5 ± 1.9%

# From patent publication US4543256A, “(-)-10,1L Methylenedioxy-N-N-propylnoraporphine and methods employing it for inhibiting the effects of epileptic seizures and for prevention and treatment of duodenal ulcers” (Northeastern University, priority 1982, dated 1985)
